Holding throughout (format): in vivo
The subject of test [1] is Kunming mice. As to the kind of experiment: Forced mouse swimming test. The note with it: 10 mg/kg intraperitoneal, 3 days, last 4 of 6 min. Here is the method: Animals: Kunming mice, male, body weight 18-22 g, SPF grade; SD rats, male, body weight 150-180 g, SPF grade. The test was carried out after acclimatization, and the animal was fasted for 12 hours before the test.
All drugs for the test were suspended and dispersed in a 1% aqueous solution of hydroxypropyl methylcellulose (HPMC), and shaken well before use. […] The doses for administration were all 10 mg/kg. For the concentration and volume for administration, see J Psychiatry Neurosci 2004; 29(2):126-133. The mice were intraperitoneally administered in a volume of 0.5 mL/20 g; and the rats were administered by i.g. in a volume of 2 mL/100 g.
Animal grouping and administration method were the same as those in the tail suspension test in mice. The mice were placed in a round glass vessel with a height of 20 cm, an inner diameter of 12 cm, a water depth of 10 cm and a water temperature of 25° C.

Test [2] has as its system chronic stress rat. Description: Chronic unpredictable stress model of rat: sucrose preference test. The note with it: for Sucrose preference (%) Before modeling: baseline before modeling; for Sucrose preference (%) After 4 weeks of administration: stress rats. On the procedure: (§1) Animals: SD rats, male, weighing 150-180 g, SPF grade.
(§2) Formulation and administration mode of drugs: All drugs for the test were suspended and dispersed with a 0.5% aqueous solution of CMC-Na, and shaken well before use. The rats were administered by i.g. at a volume of 10 mL/kg.
(§3) Rats were acclimatized for 3 days after purchase. First, 48 h of sucrose training was performed. After the training, a sucrose baseline test was performed. The rats were randomly and evenly grouped according to sucrose preference. Then, (dl) a 4-week chronic unpredictable stress (CUS) procedure was performed with the following stress methods: (1) food deprivation (fasting); (2) water deprivation; (3) stroboflash; (4) overnight illumination; (5) wet feeding (200 ml of water was added to 150 g of sawdust bedding); (6) noise stimulation (110 dB), 1 h; (7) swimming in cold water (the water temperature was 10° C.); (8) cage tilt (45 degrees of inclination); (9) tail pinch (at 1 cm away from the tail root) for 6 min; (10) restraint for 1-2 h. One of the above stress methods was used randomly every day, but water deprivation and fasting were separated. The corresponding drugs (including the blank control group and the positive drug group) were given 1 h before the stress in the morning every day. Behavior test was performed after the end of the chronic stress. d25, sucrose preference; d28, open-field; d31, novelty-suppressed feeding test.
Rats were acclimatized for 3 days after purchase. The rats were trained to give sucrose aqueous solution for 48 h without food and water supply, only 1% aqueous solution of sucrose was given for the first 24 h, and 1% aqueous solution of sucrose and tap water were simultaneously given for the next 24 h. After the end of the training, the rats were fed with normal food and water for 3 days, and then a sucrose preference baseline was determined: after fasting and water deprivation for 14 h, rats were allowed to drink freely two different bottles of water, one of which was 1% aqueous solution of sucrose and the other was tap water. The intakes (g) of rats from these two bottles within 1 hour were measured to calculate the sucrose preference. Sucrose preference (%)=intake of aqueous solution of sucrose/(intake of aqueous solution of sucrose+intake of tap water)×100%. On the 25th day of the stress program, the same method was used to perform the sucrose preference test again to calculate the sucrose preference.

The subject of test [3] is chronic stress rat. As to the kind of experiment: Chronic unpredictable stress model of rat: open-field activity test. The settings on record: stress rats, day 28, 5 min. On the procedure:
as §1, §2, §3
On the 28th day of the stress program, the rats were placed in the middle compartment of an open chamber, and a 60 W light bulb was placed 45 cm directly above them. The activities of the rats were observed within 5 minutes, including the number of times crossing a compartment horizontally (the number of times crossing into an adjacent compartment with three or more claws), and the number of times rearing (the number of times the forelimbs are more than 1 cm off the ground). Note: the test environment of the test should be kept as quiet as possible; the rats should be placed in the same position and direction each time; and the animal's excretion should be removed after each test.

Test [4] relates to SD rats. As to the kind of experiment: Anxiety behavior model of repeatedly administrated rat: novelty-suppressed feeding test. The settings on record: D12. On the procedure: The requirements for test animals, drug formulation and administration were the same as those of the rat chronic mild stress model.
Instruments: Vogel drinking anxiety device for rat and O-maze device for rat were manufactured by Shanghai XinRuan Company. The rat feeding chamber was a home-made white plastic box (60×45×25 cm).
The rats were administrated continuously by i.g. once a day. A novelty-suppressed feeding test, a Vogel drinking conflict test, and an O-maze test were performed on a different day, respectively. Each behavior test was performed at 9:00-12:00, and the administration time was 16:00-17:00. The test process was as follows: D12, novelty-suppressed feeding test (animals were fasted for 48 hours before the test); D18, Vogel drinking conflict test (animals were banned from water for 48 hours before the test); D21, O-maze test.
Common paddings with a thickness of 1.5 cm were placed at the floor of the rat feeding chamber, and six equal-sized food pellets were placed in the center. During the test, the rats were individually placed in a fixed position of the feeding chamber, and observed for 5 minutes. The time from rat entry to the start of biting or chewing the food was recorded with a stopwatch.

For the molecule `COc1ccc2cccc(CCNC(C)=O)c2c1` [Agomelatine, reference compound], the Immobility time in test [1] is listed as 113.5 ± 26.6 s. In test [2] (group later dosed 20 mg/kg), the “Sucrose preference (%) Before modeling” value is listed as 65.6 ± 10.1%. The “Sucrose preference (%) After 4 weeks of administration” value in test [2] (10 mg/kg i.g. daily) is given as 84.3 ± 3.6 %; in test [2] (20 mg/kg i.g. daily), 66.6 ± 6.7%; in test [2] (40 mg/kg i.g. daily) it was 76.1 ± 5.3 %. Also, the “Number of times crossing a compartment horizontally” value in test [3] (10 mg/kg i.g. daily) is on record as 33.4 ± 4.2; in test [3] (20 mg/kg i.g. daily), 33.9 ± 2.4; in test [3] (40 mg/kg i.g. daily), 38.9 ± 3.6. Also, the “Number of times rearing” value in test [3] (10 mg/kg i.g. daily) is reported as 18.1 ± 1.1; in test [3] (20 mg/kg i.g. daily), 16.7 ± 1.8; in test [3] (40 mg/kg i.g. daily), 17.3 ± 1.1. Moreover, the Feeding latency is 208 ± 26 s in test [4] (10 mg/kg i.g. once a day), 163 ± 25 s in test [4] (20 mg/kg i.g. once a day) and 124 ± 25 s in test [4] (40 mg/kg i.g. once a day).
For the molecule `[2H]C([2H])([2H])Oc1cc2c(CCNC(C)=O)cccc2cc1Cl` [Example 1, N-(2-(6-chloro-7-deuteromethoxy-naphthalen-1-yl)ethyl)acetamide], the Immobility time in test [1] came to 73.0 ± 18.2 s. In addition, the “Sucrose preference (%) Before modeling” value is listed as 55.5 ± 7.8% in test [2] (group later dosed 5 mg/kg) and 60.1 ± 4.4% in test [2] (group later dosed 20 mg/kg). Besides, the “Sucrose preference (%) After 4 weeks of administration” value in test [2] (5 mg/kg i.g. daily) is given as 80.4 ± 3.1 %; in test [2] (10 mg/kg i.g. daily), 78.4 ± 4.4 %; in test [2] (20 mg/kg i.g. daily), 78.8 ± 6.1 %; in test [2] (40 mg/kg i.g. daily), 83.3 ± 1.9 %. For the same molecule, the “Number of times crossing a compartment horizontally” value is given as 36.8 ± 4.4 in test [3] (5 mg/kg i.g. daily), 36.4 ± 4.2 in test [3] (10 mg/kg i.g. daily), 36.5 ± 2.9 in test [3] (20 mg/kg i.g. daily) and 34.9 ± 3.0 in test [3] (40 mg/kg i.g. daily). The “Number of times rearing” value in test [3] (5 mg/kg i.g. daily) was 15.1 ± 1.3; in test [3] (10 mg/kg i.g. daily), 14.6 ± 1.7; in test [3] (20 mg/kg i.g. daily) it was 15.9 ± 1.1; in test [3] (40 mg/kg i.g. daily), 17 ± 1.5. Also, the Feeding latency in test [4] (5 mg/kg i.g. once a day) was 232 ± 23 s; in test [4] (10 mg/kg i.g. once a day), 141 ± 17 s; in test [4] (20 mg/kg i.g. once a day), 124 ± 18 s; in test [4] (40 mg/kg i.g. once a day) it was 120 ± 14 s.

The values above are taken from patent US11980598B2, “N-(2-(substituted-naphth-1-yl)ethyl) substituted amide compound, preparation and uses thereof” (BEIJING GREATWAY PHARMACEUTICAL TECHNOLOGY CO., LTD., priority 2017, dated 2024).
